Measurements from ChEMBL document CHEMBL3507680, “University of Dundee, Gates Library screen for HepG2 cell viability”.

Assay: Human HepG2 cell viability assay in 384 well format
Type: toxicity, cell-based
Set-up: dose 125 nL, time 70.5 hour; cytotoxicity at 70.5 h: concentration not given beside the values
Details: HepG2 cells, read-out: Inhibition

Row | SMILES | cytotoxicity at 70.5 h
1 | CCOc1ccc(S(=O)(=O)NC(=O)CCC2CCCO2)cc1 (configuration not stated) | -10.5%
2 | CSc1nc2ccsc2c(=O)n1CC(=O)N1CCCCC1C (configuration not stated) | -9.11%
3 | COc1ccc(C(=O)NCCN(C)C)c(I)c1 | 2.46%
4 | Cc1cccc(C(=O)N2CCCC2)c1NCC(=O)NC(C)(C#N)C1CC1 (configuration not stated) | 28.8%
5 | O=C(C[C@@H]1COC[C@H]2CN(Cc3ccc(F)cc3)C[C@@H]12)N1CCCCO1 | -14.5%
6 | CNS(=O)(=O)c1ccc(C(=O)NCc2ccnc(OC)c2)cc1 | -10%
7 | CCN(c1ccc(C(=O)N2CCC(C(N)=O)CC2)cc1)S(=O)(=O)CC | 15.4%
8 | CCc1nc(C2CCCN(C(=O)c3cnn(CC)c3)C2)no1 (configuration not stated) | 2.05%
9 | CN(C)CC1(O)CCN(S(=O)(=O)c2ccc(Cl)cc2)C1 (configuration not stated) | 3.29%
10 | Cc1cnc(CCNC(=O)C2CN(C(=O)Cc3ccc(F)cc3)C2)s1 | 15.9%
11 | O=S1(=O)C[C@@H]2[C@H](C1)N(Cc1ccc3ccccc3c1)CCN2CC1CC1 | 2.29%
12 | N#Cc1ccc(S(=O)(=O)NCCn2ccnc2)cc1Cl | -0.547%
13 | CC(=O)Nc1nc(C(=O)NCCOc2ccc(C)cc2)cs1 | 13.3%
14 | CC(C)n1c(C2CCCN(CCS(C)(=O)=O)C2)nc2ccccc21 (configuration not stated) | -0.395%
15 | Cc1ccc(SC2CCCC2)c(C(=O)NCCO)c1 | -23.4%
16 | COc1ncccc1NC(=O)N1CCC(c2ccc(O)cc2)CC1 | -3.42%
17 | C[C@@H]1C[C@@H]2CCN(Cc3ccccn3)C[C@H]2O1 | -5.42%
18 | Cn1cc(C(NCCc2ccccn2)c2cccc(F)c2)cn1 (configuration not stated) | -5.84%
19 | CCCc1nc(NCCCOCC)c2c(n1)c(C)nn2CC | -18.2%
20 | Cc1nc(C)n(CC2CCCN(CCOc3ccccc3C#N)C2)n1 (configuration not stated) | 18.8%
21 | CCCc1nnc(C(=O)N(C)Cc2ccc(OC)cc2)o1 | -2.69%
22 | COc1ccccc1CC(=O)N1C[C@H]2CC[C@@H]1CN(Cc1cscn1)C2 | -12.1%
23 | Cc1c(Cl)ccc2ccc(NC(CO)CO)nc12 | 6.75%

Row | SMILES | cytotoxicity at 70.5 h
24 | CN(C)[C@@H]1CCN(C(=O)c2cccc(C#N)c2)[C@H]1Cc1cnn(C)c1 | -8.57%
25 | CC(C)c1cc(C(=O)N2CC[C@@H](c3ccc4c(c3)OCO4)[C@H](O)C2)[nH]n1 | 3.33%
26 | Cn1cc2ncn(CCCOc3cccnc3)c(=O)c2n1 | 22.8%
27 | COc1c(C2CCCN2C(=O)c2cc(C)on2)c(C)nn1C (configuration not stated) | -8.13%
28 | Cc1ncsc1C(=O)OCC1CCN(c2ccccc2)C1 (configuration not stated) | -97.5%
29 | CNC(=O)c1nc(CN2CCOC(Cc3ccc(F)cc3)C2)no1 (configuration not stated) | -15.2%
30 | Cc1n[nH]c(C)c1-c1nccnc1CC1CCCN(C)C1 (configuration not stated) | -7.42%
31 | CCCC1CCCN(C(=O)Nc2ccnc(C(=O)N(C)C)c2)CC1 (configuration not stated) | -6.22%
32 | CN1CCCC1CNC(=O)CCOc1ccc(Cl)cc1 (configuration not stated) | -2.08%
33 | c1cnc(N2CCc3onc(CN4CCOCC4)c3C2)cn1 | -9.12%
34 | c1cc(N2CCOCC(Cc3ccc4[nH]ccc4c3)C2)ncn1 (configuration not stated) | -8.81%
35 | Cc1cc(N2Cc3cnc(CC(C)C)nc3C2)nc(N)n1 | 0.669%
36 | O=C(C1CCOC1)N1C[C@H]2CN(Cc3ccccn3)C[C@H]2C1 (some centres not stated) | -18%
37 | Cn1nc(C2CCCN(Cc3ccccc3)C2)c2nccnc21 (configuration not stated) | 2.89%
38 | COc1ccc(CNC(=O)NC2CCN(c3ccccc3)C2=O)cc1 (configuration not stated) | -4.11%
39 | Cc1cnn(CC2CCCCN2CC(=O)N(C)Cc2ccc(C)o2)c1 (configuration not stated) | -2.13%
40 | COC(=O)c1ccc(N2CCN(C(=O)c3ccn(C)c(=O)c3)CC2)cc1 | 1.93%
41 | CCOCC1CN(C(=O)COc2ccccc2)Cc2cn(C)nc21 (configuration not stated) | -4%
42 | CCOc1cc(Cl)c(CN2CCC3(CCCNC3=O)C2)cc1OC (configuration not stated) | -5.69%
43 | O=S(=O)(C1CC1)N1CCO[C@H]2[C@H](OCCN3CCCC3)CC[C@@H]21 | 23.9%
44 | CNc1nc(C2CCCN(C(=O)C(C)(C)OC)C2)nc2c1CN(C)CC2 (configuration not stated) | -13.7%
45 | CN1[C@H](CN2CCCC2)C[C@@H]2CN(C(=O)Cc3ccsc3)CC[C@@H]21 | -10.6%
46 | Cc1nnc(CN(C)CCCOc2cccc(Cl)c2)o1 | 0.527%

Row | SMILES | cytotoxicity at 70.5 h
47 | CN(Cc1ccco1)Cc1cnc2n1CCN(c1ncccn1)CC2 | -9.53%
48 | CC(C)CC(=O)N1C[C@@H]2CCN(c3cnccn3)C[C@@H]2C1 | -5.35%
49 | CC(C)c1nc(CN(C)C(=O)c2cn3ccsc3n2)cs1 | 2.2%
50 | CN1CCC2(CC1)CN(Cc1ccc(C3CCCCO3)o1)CCCN2C (configuration not stated) | -4.97%
51 | Cc1nn(C)c2nc(NCCOCCO)sc12 | -4.46%
52 | Cc1ccsc1CNC(=O)N1CCC(Cc2cnn(C)c2)C1 (configuration not stated) | -3.88%
53 | O=C1CCc2cc(C(=O)NCc3ccc(Cl)s3)ccc2N1 | -3.83%
54 | CS(=O)(=O)NCc1noc2c1CN(C(=O)C1CCC1)CC2 | -8.52%
55 | Clc1ccccc1C1(c2ccnc(CC3CC3)n2)CCNCC1 | 4.53%
56 | CC(=O)N1C[C@H]2C3(CCN(S(C)(=O)=O)CC3)CC[C@@]2(C(=O)N(C)C)C1 | -8.99%
57 | Cc1nn(C)cc1CN(C)C(=O)c1cnccn1 | 1.11%
58 | CC(C)c1nc(CN2CCCC(O)C2)cs1 (configuration not stated) | 13.1%
59 | Cc1nc(C)c(C(=O)NCCNC(=O)c2ccc(F)cc2F)s1 | -6.45%
60 | CCC(CC)C(=O)c1c[nH]c(C(=O)N2CCN(c3ccccc3)CC2)c1 | -3.31%
61 | Cc1nccc(C(=O)N2CCOC(c3nc(C(C)C)n[nH]3)C2)n1 (configuration not stated) | -5.71%
62 | CSCC(=O)N(Cc1ccccn1)Cc1ccccc1C | -4.08%
63 | COc1ccc(CC(=O)N2CCCC(n3cc(C)cn3)C2)c(OC)c1 (configuration not stated) | -6.34%
64 | O=C(CCNC(=O)C1=Cc2ccccc2OC1)NCc1ccncc1 | -2.01%
65 | O=C(CCOc1cccc(Cl)c1)N1CCN(c2cnccn2)CC1 | 22%
66 | CC(C)c1nn(C)c(N2CCOCC2)c1CNC(C)c1cccs1 (configuration not stated) | -1.47%
67 | Cn1c(CN2CCCC2)nnc1C1CCCN(C(=O)CN2CCCC2)C1 (configuration not stated) | 2.51%
68 | COC(C(=O)N1CCN(c2cccc(Cl)c2)C(=O)C1)c1ccccc1 (configuration not stated) | -7.64%
69 | CC(C(=O)NCCc1ccc2c(c1)OCCO2)n1cncn1 (configuration not stated) | -14.6%

Row | SMILES | cytotoxicity at 70.5 h
70 | CC(C)NC(=O)CS(=O)(=O)Cc1coc(-c2ccc(F)cc2)n1 | -17.8%
71 | O=C(CCC1CCN(C(=O)c2cc[nH]c2)CC1)NCc1cccc(Cl)c1 | -9.67%
72 | COCCN1CCC2(CC1)CC(COC)N(c1ncccn1)C2 (configuration not stated) | -9.91%
73 | Cc1cncnc1C1CCN(C(=O)C2(C)CCCCN2C)CC1 (configuration not stated) | -4.92%
74 | Cc1ccc(C(=O)N(Cc2ccccc2F)C2CC2)c(=O)[nH]1 | 7.09%
75 | Cc1cccc(Cl)c1NC(=O)Cn1cc(C(=O)O)ccc1=O | -2.75%
76 | Cc1noc(C)c1CN1CC2(CCN(C(=O)c3ccoc3C)C2)CC1=O (configuration not stated) | -6.54%
77 | CC(=O)N1CCOC[C@H](OCC(=O)N(C)C)C1 | 0.496%
78 | CCc1nc(C(=O)N2CC(C(C)C)Nc3ccccc32)c[nH]1 (configuration not stated) | -7.98%
79 | CN(C)C(=O)C1CCCN1CCCNC(=O)Cc1ccccc1F (configuration not stated) | -16.1%
80 | CCC[C@@H](NC(N)=O)C(=O)N1CCc2c(Cl)cccc2C1 | -2.76%
81 | CS(=O)(=O)N1CCCCCC1C1CCN(Cc2nc(C3CC3)no2)CC1 (configuration not stated) | 5.88%
82 | O=C(c1ccncc1F)N1Cc2nc(COCC3CC3)oc2C1 | -15.8%
83 | CN1CCc2c(C#N)c(NCCc3ccccc3)n3cnnc3c2C1 | -12.4%
84 | C/C(NC(=O)c1ccco1)=C1/C(=O)C[C@@H]2[C@H]1C2(C)C | -6.66%
85 | COc1cccc(CC(=O)N2CCN(c3cccc(C)c3)C(C)C2)c1 (configuration not stated) | 0.115%
86 | CS(=O)(=O)N1CCC2(CC1)CC(Oc1ccccn1)CO2 (configuration not stated) | -3.34%
87 | CC(Cn1cccn1)NC(=O)N(C)Cc1ccc(C(N)=O)cc1 (configuration not stated) | 37.9%
88 | N[C@H]1CN(C(=O)CCC(F)(F)F)C[C@@H]1c1ccccc1 | -5.15%
89 | Cc1cc(C)c(CNC(=O)N(C)Cc2nnc3n2CCC3)c(=O)[nH]1 | -10.3%
90 | CN1CC(=O)N(c2ccsc2)CC12CCN(C(=O)c1ccc[nH]1)C2 (configuration not stated) | 8.85%
91 | CC(C)(C)n1ncc2c1NC(=O)CC2c1cccs1 (configuration not stated) | -6.21%
92 | Cc1ccc(CN2CCC3(CCC3NC(=O)c3ccn(C)c3)CC2)s1 (configuration not stated) | 0.0423%

Row | SMILES | cytotoxicity at 70.5 h
93 | Cc1nsc(NC(=O)N2CCCCC2CCO)n1 (configuration not stated) | -6.53%
94 | CCN(CC)c1ccc(CNC(=O)c2cnc(C)cn2)cn1 | -4.04%
95 | CN1CCC(c2cccc(C(=O)N(C)C)n2)CC1 | -7.65%
96 | Cc1nc(CN2CCCN(C(=O)c3cccnc3O)CC2)cs1 | -4.77%
97 | Fc1ccc(-c2nnc(CNC3CCc4ncnn4C3)o2)cc1 (configuration not stated) | -12.1%
98 | Cc1ccc(C(=O)N2CCOCC3(CCN(C4CCOCC4)C3)C2)o1 (configuration not stated) | -13.2%
99 | Cc1c(O)cccc1C(=O)N1CCCC2(C1)C(=O)N(C)c1ccccc12 (configuration not stated) | 23%
100 | Cc1cnc(N2CCOC3(CCCN(CC(=O)N(C)C)C3)C2)nc1 (configuration not stated) | -3.5%
101 | O=S(=O)(CCc1ccccc1Cl)CC(O)CO (configuration not stated) | -0.491%
102 | O=C(NCc1ccccc1)[C@H]1C[C@@H]2CN(S(=O)(=O)C3CC3)C[C@H]1O2 | -10.1%
103 | CN1CCC2(CC1)CN(C(=O)c1cccc3cccnc13)CCN2C | -8.6%
104 | Cc1cc(CN2C[C@H]3CCC[C@@]3(COCc3csc(C)n3)C2)no1 | -9.15%
105 | O=C(Cc1cccnc1)N1CC(Cc2nccc3cc[nH]c23)C1 | 6.89%
106 | CCCc1nc(C(=O)N(C)Cc2cc(CC)no2)cs1 | 0.552%
107 | Cc1cnc2c(S(=O)(=O)NC3CCS(=O)(=O)C3)cccc2c1 (configuration not stated) | -8.37%
108 | O=C(C1CCCO1)N1CCC(O)(Cn2ccc3ccncc32)CC1 (configuration not stated) | 15.9%
109 | Cn1ccnc1CNC(=O)N(CCCO)C1CCCc2ccccc21 (configuration not stated) | 21.5%
110 | CC(c1ccccc1)n1c(SCC(=O)O)nnc1-c1ccn[nH]1 (configuration not stated) | -5.88%
111 | COc1cc(N2CC[C@@H](O)[C@@H]2Cc2cccnc2)ncn1 | -8.63%
112 | CC(C)[C@H]1COC(=O)N1Cc1nccn1C(C)C | -4.48%
